Laboratory results taken from patent US11400035B2, “Preservative mixture” (Symrise AG, priority 2016, dated 2022).

Tests used:
[1] = experimentally determined values from literature; cited from earlier work
[2] = Recrystallization in shampoo, 2 days at 5° C., microscopy; type: physicochemical; details: polarized light, 60 fold, 0.1% 4-isopropyl-3-methyl-phenol
Procedure: To investigate the influence on recrystallization in a finished formulation the pre-solutions BC, BC2, BC3 and BC5 (Table 3) in comparison to neat 4-isopropyl-3-methyl phenol were incorporated into a shampoo. (Table 5, trials 1-5) The samples were stored for 2 days at 5° C. and then examined by microscopy.
Production method shampoo: Blend Phase A by stirring slowly with a vane stirrer, stop the process when foaming starts. Swell Ucare Poylmer JR-400 in water by stirring and warming up to 50° C. (The dispersion becomes clear and slightly viscous, when swelling process is completed) Add Phases B, C and D to A one after the other by stirring with a vane stirrer.
Incorporation of 4-isopropyl-3-methyl-phenol (neat) into the finished shampoo: Heat up the shampoo to 70° C., add 4-isopropyl-3-methyl-phenol and stir for 15 min.
Incorporation of solutions BC, BC2, B3 and BC5: Blend 0,45% (corresponds to 0,1% neat 4-isopropyl-3-methyl-phenol) of the different mixtures with the shampoo formula at 22° C. by […]
Microscopic images (Olympus IX 70, polarized light, 60 fold) of shampoo formulae 1-5 after 2 days storage at 5° C. are provided in FIGS. 4A to 4E.

[3] = General solubility of 4-isopropyl-3-methyl-phenol in different hydrophilic solvents, storage at 5° C.; type: physicochemical; details: stored at 5° C.
Procedure: After preparation, the samples were stored at 5° C. for […]. […] The evaluation of these limits was important for further determination of quantitative solubility improvement. The results are compiled in Table A and 13; the symbols have the following meanings: (++++) fully dissolved; (++) dissolved, but moderate recrystallisation after 48 h at 5° C.; (+) dissolved, but strong recrystallisation after 48 h at 5° C.; (#) not dissolved.

Compound | LOG Po/w (exp.) [1] | other results
CCCCC(O)CO (stereo not shown) [1,2-Hexanediol] | 0.69 | 
Cc1cc(O)ccc1C(C)C [4-isopropyl-3-methyl-phenol] |  | Recrystallization in shampoo [2]: recrystallized
OCc1ccccc1 [Benzylalkohol] |  | Solubility of 4-isopropyl-3-methyl-phenol in different hydrophilic solvents ([3]; Concentration 15 % b.w.): ++; Solubility of 4-isopropyl-3-methyl-phenol in different hydrophilic solvents ([3]; Concentration 22 % b.w.): +; Solubility of 4-isopropyl-3-methyl-phenol in different hydrophilic solvents ([3]; Concentration 25 % b.w.): +; Solubility of 4-isopropyl-3-methyl-phenol in different hydrophilic solvents ([3]; Concentration 30 % b.w.): +; Solubility of 4-isopropyl-3-methyl-phenol in different hydrophilic solvents ([3]; Concentration 34 % b.w.): +; Solubility of 4-isopropyl-3-methyl-phenol in different hydrophilic solvents ([3]; Concentration 36 % b.w.): +; Solubility of 4-isopropyl-3-methyl-phenol in different hydrophilic solvents ([3]; Concentration 40 % b.w.): +; Solubility of 4-isopropyl-3-methyl-phenol in different hydrophilic solvents ([3]; Concentration 46 % b.w.): +
Cc1ccc(C(C)C)cc1O [Carvacrol] | 3.49 | 
C=C(C)C1CC=C(C)C(=O)C1 (stereo not shown) [Carvone] | 2.71 | 
CCOCCOCCO [Ethoxydiglycol] | −0.54 | 
CCCCCCCCCCCC(=O)OCC [Ethyl Laurate] | 5.71 | 
CCOC(C)=O [Ethyl acetate] | 0.73 | 
OCCO [Ethylene glycol] | −1.36 | 
O=C1OCC(CO)O1 (stereo not shown) [Glycerin Carbonate] |  | Solubility of 4-isopropyl-3-methyl-phenol in different hydrophilic solvents ([3]; Concentration 5 % b.w.): ++
CC(=O)OCCC(C)C [Isoamyl acetate] | 2.25 | 
C=C(C)[C@H]1CC=C(C)CC1 [Limonene] | 4.38 | 
CC(C)[C@@H]1CC[C@@H](C)CC1=O [Menthone] | 3.05 | 
CC(=O)OC1CC(C)CCC1C(C)C (stereo not shown) [Menthyl acetate] | 4.00 | 
COC(=O)c1ccccc1O [Methyl salicylate] | 2.55 | 
O=C(OCCc1ccccc1)c1ccccc1 [Phenethyl Benzoate] | 4.01 | 
OCCOc1ccccc1 [Phenoxyethanol] | 1.16 | 
CC1COC(=O)O1 (stereo not shown) [Propylene Carbonate] |  | Solubility of 4-isopropyl-3-methyl-phenol in different hydrophilic solvents ([3]; Concentration 18 % b.w.): ++; Solubility of 4-isopropyl-3-methyl-phenol in different hydrophilic solvents ([3]; Concentration 29 % b.w.): +
CC(O)CO (stereo not shown) [Propylene Glycol] |  | Solubility of 4-isopropyl-3-methyl-phenol in different hydrophilic solvents ([3]; Concentration 22 % b.w.): ++; Solubility of 4-isopropyl-3-methyl-phenol in different hydrophilic solvents ([3]; Concentration 25 % b.w.): +
